{"source": "ChEMBL document CHEMBL4800723", "about": "“Data for DCP probe BI-1942” (2021)", "key": {"[1]": {"biological_target": "Cannabinoid receptor 1 (Homo sapiens) (UniProt P21554)", "assay": "CB1(HU)_AGON Eurofins SafetyScreen44 (BI)", "details": "Rattus norvegicus; filed as agonist; Compound concentration 10.0 uM"}, "[2]": {"biological_target": "Cholecystokinin receptor type A (Homo sapiens) (UniProt P32238)", "assay": "CCKA/H Eurofins SafetyScreen44 (BI)", "details": "Compound concentration 10.0 uM"}, "[3]": {"biological_target": "Serotonin 3 (5-HT3) receptor (Homo sapiens) (UniProt P46098+A5X5Y0+O95264+Q70Z44+Q8WXA8)", "assay": "5HT3/H Eurofins SafetyScreen44 (BI)", "format": "protein-complex assay", "details": "Compound concentration 10.0 uM"}, "[4]": {"biological_target": "Histamine H2 receptor (Homo sapiens) (UniProt P25021)", "sequence (P25021 whole entry)": "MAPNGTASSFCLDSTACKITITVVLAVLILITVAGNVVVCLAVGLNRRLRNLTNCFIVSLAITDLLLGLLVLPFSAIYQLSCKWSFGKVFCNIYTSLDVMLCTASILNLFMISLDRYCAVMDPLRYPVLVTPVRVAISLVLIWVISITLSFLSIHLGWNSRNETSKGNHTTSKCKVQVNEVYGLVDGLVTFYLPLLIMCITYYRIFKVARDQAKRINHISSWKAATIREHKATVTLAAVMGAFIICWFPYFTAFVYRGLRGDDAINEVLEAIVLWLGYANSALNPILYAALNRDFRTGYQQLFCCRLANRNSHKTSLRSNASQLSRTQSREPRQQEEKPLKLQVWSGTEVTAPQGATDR", "assay": "H2/APT/HS Eurofins SafetyScreen44 (BI)", "details": "filed as antagonist, Compound concentration 10.0 uM"}, "[5]": {"biological_target": "Alpha-1A adrenergic receptor (Homo sapiens) (UniProt P35348)", "sequence (P35348 whole entry)": "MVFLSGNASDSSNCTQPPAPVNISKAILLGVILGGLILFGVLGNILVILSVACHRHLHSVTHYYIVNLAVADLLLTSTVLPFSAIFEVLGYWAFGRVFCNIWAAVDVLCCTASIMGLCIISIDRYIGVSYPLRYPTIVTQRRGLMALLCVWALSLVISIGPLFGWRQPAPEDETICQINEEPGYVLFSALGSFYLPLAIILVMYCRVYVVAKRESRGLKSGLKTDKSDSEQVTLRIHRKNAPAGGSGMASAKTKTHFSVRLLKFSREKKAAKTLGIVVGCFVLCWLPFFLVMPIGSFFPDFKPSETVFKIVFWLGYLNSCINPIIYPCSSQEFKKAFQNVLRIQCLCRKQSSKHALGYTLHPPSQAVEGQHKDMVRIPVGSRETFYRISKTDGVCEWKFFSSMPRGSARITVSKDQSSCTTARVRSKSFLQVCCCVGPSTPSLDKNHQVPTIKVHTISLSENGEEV", "details": "Compound concentration 10.0 uM"}, "[6]": {"biological_target": "Sodium-dependent noradrenaline transporter (Homo sapiens) (UniProt P23975)", "sequence (P23975 whole entry)": "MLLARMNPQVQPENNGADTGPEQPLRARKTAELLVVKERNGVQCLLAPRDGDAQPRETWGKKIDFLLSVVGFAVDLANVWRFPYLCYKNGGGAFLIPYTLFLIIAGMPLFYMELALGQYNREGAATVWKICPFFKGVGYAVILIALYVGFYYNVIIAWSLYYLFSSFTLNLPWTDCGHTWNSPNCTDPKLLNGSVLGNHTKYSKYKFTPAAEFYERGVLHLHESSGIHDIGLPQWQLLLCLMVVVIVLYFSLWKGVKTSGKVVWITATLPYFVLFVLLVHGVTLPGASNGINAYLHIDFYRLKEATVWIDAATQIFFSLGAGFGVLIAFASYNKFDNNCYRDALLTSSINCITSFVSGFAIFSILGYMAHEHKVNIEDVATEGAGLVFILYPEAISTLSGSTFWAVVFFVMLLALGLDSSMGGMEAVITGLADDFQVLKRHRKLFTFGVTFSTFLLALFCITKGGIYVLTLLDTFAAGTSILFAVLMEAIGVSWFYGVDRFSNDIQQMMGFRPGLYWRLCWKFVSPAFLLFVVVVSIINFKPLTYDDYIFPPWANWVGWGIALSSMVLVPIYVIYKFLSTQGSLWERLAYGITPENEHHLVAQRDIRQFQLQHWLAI", "details": "Compound concentration 10.0 uM"}, "[7]": {"biological_target": "Neutrophil elastase (Homo sapiens) (UniProt P08246)", "assay": "ELASTASE(H) Eurofins SafetyScreen44 (BI)", "details": "Compound concentration 10.0 uM"}, "[8]": {"biological_target": "Glucocorticoid receptor (Homo sapiens) (UniProt P04150)", "assay": "GCORTICOID/H Eurofins SafetyScreen44 (BI)", "details": "Compound concentration 10.0 uM"}, "[9]": {"biological_target": "Androgen receptor (Homo sapiens) (UniProt P10275)", "assay": "ANDROGEN/H Eurofins SafetyScreen44 (BI)", "details": "Compound concentration 10.0 uM"}, "[10]": {"biological_target": "Procathepsin L (Homo sapiens) (UniProt P07711)", "assay": "CATHEPSIN-L Eurofins SafetyScreen44 (BI)", "details": "Compound concentration 10.0 uM"}, "[11]": {"biological_target": "Human immunodeficiency virus type 1 protease (Human immunodeficiency virus 1) (UniProt Q72874)", "assay": "HIV-1/H Eurofins SafetyScreen44 (BI)", "details": "Compound concentration 10.0 uM"}, "[12]": {"biological_target": "Matrix metalloproteinase-9 (Homo sapiens) (UniProt P14780)", "assay": "MMP-9 (H) Eurofins SafetyScreen44 (BI)", "details": "Compound concentration 10.0 uM"}, "[13]": {"biological_target": "Muscarinic acetylcholine receptor M2 (Homo sapiens) (UniProt P08172)", "assay": "M2/H Eurofins SafetyScreen44 (BI)", "details": "filed as antagonist, Compound concentration 10.0 uM"}, "[14]": {"biological_target": "Beta-2 adrenergic receptor (Homo sapiens) (UniProt P07550)", "details": "Compound concentration 10.0 uM"}, "[15]": {"biological_target": "D(1A) dopamine receptor (Homo sapiens) (UniProt P21728)", "details": "Compound concentration 10.0 uM"}, "[16]": {"biological_target": "Kappa-type opioid receptor (Homo sapiens, UniProt P41145)", "sequence (P41145 whole entry)": "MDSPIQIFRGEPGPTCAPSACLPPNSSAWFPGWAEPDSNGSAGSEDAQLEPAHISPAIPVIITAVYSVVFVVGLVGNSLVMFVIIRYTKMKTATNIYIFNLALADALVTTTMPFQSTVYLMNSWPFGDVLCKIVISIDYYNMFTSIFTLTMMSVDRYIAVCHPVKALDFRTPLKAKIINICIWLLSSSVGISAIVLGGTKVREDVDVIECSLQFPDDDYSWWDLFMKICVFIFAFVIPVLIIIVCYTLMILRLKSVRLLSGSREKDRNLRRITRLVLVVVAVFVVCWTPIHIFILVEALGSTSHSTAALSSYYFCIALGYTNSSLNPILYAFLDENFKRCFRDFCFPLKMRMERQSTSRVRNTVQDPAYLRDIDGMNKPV", "details": "Compound concentration 10.0 uM"}, "[17]": {"biological_target": "D(1B) dopamine receptor (Homo sapiens) (UniProt P21918)", "details": "Compound concentration 10.0 uM"}, "[18]": {"biological_target": "Sodium-dependent dopamine transporter (Homo sapiens) (UniProt Q01959)", "assay": "DATRANS/HUM Eurofins SafetyScreen44 (BI)", "details": "Compound concentration 10.0 uM"}, "[19]": {"biological_target": "Beta-3 adrenergic receptor (Homo sapiens) (UniProt P13945)", "details": "Compound concentration 10.0 uM"}, "[20]": {"biological_target": "Alpha-2A adrenergic receptor (Homo sapiens) (UniProt P08913)", "sequence (P08913 whole entry)": "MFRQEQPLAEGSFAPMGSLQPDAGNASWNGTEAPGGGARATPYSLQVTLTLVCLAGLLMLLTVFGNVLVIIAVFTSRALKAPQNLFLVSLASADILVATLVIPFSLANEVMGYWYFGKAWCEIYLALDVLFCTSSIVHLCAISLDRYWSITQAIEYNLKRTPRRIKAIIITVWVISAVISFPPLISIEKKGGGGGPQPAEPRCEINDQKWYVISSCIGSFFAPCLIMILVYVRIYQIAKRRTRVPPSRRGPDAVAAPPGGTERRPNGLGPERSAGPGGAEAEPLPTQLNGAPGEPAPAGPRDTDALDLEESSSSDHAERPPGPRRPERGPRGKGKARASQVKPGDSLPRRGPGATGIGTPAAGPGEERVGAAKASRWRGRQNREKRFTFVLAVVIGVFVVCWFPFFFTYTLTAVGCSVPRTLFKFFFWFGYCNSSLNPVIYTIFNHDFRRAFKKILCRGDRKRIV", "assay": "ALPHA2A/HU Eurofins SafetyScreen44 (BI)", "details": "Compound concentration 10.0 uM"}, "[21]": {"biological_target": "5-hydroxytryptamine receptor 1B (Homo sapiens) (UniProt P28222)", "sequence (P28222 whole entry)": "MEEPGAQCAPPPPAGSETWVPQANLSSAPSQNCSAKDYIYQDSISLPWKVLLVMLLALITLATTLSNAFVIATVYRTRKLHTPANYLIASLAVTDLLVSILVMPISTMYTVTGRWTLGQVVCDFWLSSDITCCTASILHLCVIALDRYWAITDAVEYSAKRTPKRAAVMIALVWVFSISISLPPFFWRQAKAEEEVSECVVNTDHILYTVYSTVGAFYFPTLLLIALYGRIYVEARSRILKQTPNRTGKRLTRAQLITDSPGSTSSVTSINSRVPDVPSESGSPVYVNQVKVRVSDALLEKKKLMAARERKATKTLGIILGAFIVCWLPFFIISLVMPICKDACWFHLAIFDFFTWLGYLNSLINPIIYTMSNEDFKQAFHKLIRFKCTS", "details": "Compound concentration 10.0 uM"}, "[22]": {"biological_target": "Sodium-dependent noradrenaline transporter (Homo sapiens) (UniProt P23975)", "assay": "NEUP/H Eurofins SafetyScreen44 (BI)", "details": "Compound concentration 10.0 uM"}, "[23]": {"biological_target": "D(3) dopamine receptor (Homo sapiens) (UniProt P35462)", "details": "Compound concentration 10.0 uM"}, "[24]": {"biological_target": "Histamine H4 receptor (Homo sapiens) (UniProt Q9H3N8)", "details": "Compound concentration 10.0 uM"}, "[25]": {"biological_target": "Beta-1 adrenergic receptor (Homo sapiens) (UniProt P08588)", "details": "Compound concentration 10.0 uM"}, "[26]": {"biological_target": "Mu-type opioid receptor (Homo sapiens) (UniProt P35372)", "sequence (P35372 whole entry)": "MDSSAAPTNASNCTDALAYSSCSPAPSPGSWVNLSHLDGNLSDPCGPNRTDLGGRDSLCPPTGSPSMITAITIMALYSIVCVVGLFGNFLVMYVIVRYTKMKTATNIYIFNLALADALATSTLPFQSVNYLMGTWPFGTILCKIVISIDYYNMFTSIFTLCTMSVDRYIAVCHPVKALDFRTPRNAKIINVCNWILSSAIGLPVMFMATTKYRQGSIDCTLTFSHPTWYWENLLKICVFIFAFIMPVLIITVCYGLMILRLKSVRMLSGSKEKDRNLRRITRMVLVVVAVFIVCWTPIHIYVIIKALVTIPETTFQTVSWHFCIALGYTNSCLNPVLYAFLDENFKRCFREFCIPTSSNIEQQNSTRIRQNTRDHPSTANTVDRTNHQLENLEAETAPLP", "details": "Compound concentration 10.0 uM"}, "[27]": {"biological_target": "D(4) dopamine receptor (Homo sapiens) (UniProt P21917)", "details": "Compound concentration 10.0 uM"}, "[28]": {"biological_target": "Muscarinic acetylcholine receptor M4 (Homo sapiens) (UniProt P08173)", "details": "Compound concentration 10.0 uM"}, "[29]": {"biological_target": "Alpha-2A adrenergic receptor (Homo sapiens) (UniProt P08913)", "details": "Compound concentration 10.0 uM"}, "[30]": {"biological_target": "Tryptase (Homo sapiens) (UniProt Q9BZJ3+Q15661+Q9NRR2)", "assay": "TRYPTASE_H Eurofins SafetyScreen44 (BI)", "format": "protein assay", "details": "Compound concentration 10.0 uM"}, "[31]": {"biological_target": "Cathepsin D (Homo sapiens) (UniProt P07339)", "assay": "CATHEPSIND Eurofins SafetyScreen44 (BI)", "details": "Compound concentration 10.0 uM"}, "[32]": {"biological_target": "GABA-A receptor; anion channel (Rattus norvegicus) (UniProt O09028+P15431+P18506+P18508+P19969+P20236+P23574+P23576+P28471+P28473+P30191+P62813+P63079+P63138+Q91ZM7+Q9ES14)", "details": "Compound concentration 10.0 uM"}, "[33]": {"biological_target": "Trypsin (Homo sapiens) (UniProt P07477+P07478+P35030)", "assay": "TRYPSIN_CE Eurofins SafetyScreen44 (BI)", "format": "protein assay", "details": "Compound concentration 10.0 uM"}, "[34]": {"biological_target": "cGMP-inhibited 3',5'-cyclic phosphodiesterase 3A (Homo sapiens) (UniProt Q14432)", "assay": "PDE3A Eurofins SafetyScreen44 (BI)", "details": "Compound concentration 10.0 uM"}, "[35]": {"biological_target": "Endothelin-1 receptor (Homo sapiens) (UniProt P25101)", "sequence (P25101 whole entry)": "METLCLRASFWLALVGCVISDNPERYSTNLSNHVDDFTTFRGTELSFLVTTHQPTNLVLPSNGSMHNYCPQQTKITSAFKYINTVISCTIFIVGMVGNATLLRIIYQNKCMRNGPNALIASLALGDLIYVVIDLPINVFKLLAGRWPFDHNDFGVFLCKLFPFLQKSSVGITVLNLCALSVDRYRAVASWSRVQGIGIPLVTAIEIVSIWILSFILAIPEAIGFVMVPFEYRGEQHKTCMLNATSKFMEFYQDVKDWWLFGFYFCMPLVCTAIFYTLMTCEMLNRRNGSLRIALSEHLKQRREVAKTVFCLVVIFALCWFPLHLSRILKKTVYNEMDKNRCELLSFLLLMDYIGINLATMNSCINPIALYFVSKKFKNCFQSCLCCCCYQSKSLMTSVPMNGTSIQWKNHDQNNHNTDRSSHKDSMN", "assay": "ETA/H Eurofins SafetyScreen44 (BI)", "details": "Compound concentration 10.0 uM"}, "[36]": {"biological_target": "5-hydroxytryptamine receptor 1B (Homo sapiens) (UniProt P28222)", "assay": "5HT1B(H) Eurofins SafetyScreen44 (BI)", "details": "filed as antagonist, Compound concentration 10.0 uM"}, "[37]": {"biological_target": "Dipeptidyl peptidase 1 (Homo sapiens) (UniProt P53634)", "sequence (P53634 25-134 limits assumed)": "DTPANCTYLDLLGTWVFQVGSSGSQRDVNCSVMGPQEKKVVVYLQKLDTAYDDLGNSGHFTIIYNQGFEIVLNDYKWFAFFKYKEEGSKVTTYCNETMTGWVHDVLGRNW", "sequence (P53634 231-394 limits assumed)": "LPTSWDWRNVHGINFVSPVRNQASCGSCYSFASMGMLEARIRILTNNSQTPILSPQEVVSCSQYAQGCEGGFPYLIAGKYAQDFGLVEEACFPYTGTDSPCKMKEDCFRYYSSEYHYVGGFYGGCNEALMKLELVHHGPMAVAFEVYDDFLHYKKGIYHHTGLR", "sequence (P53634 395-463 limits assumed)": "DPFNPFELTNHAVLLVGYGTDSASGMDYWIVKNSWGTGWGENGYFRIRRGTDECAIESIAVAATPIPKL", "assay": "CATHEPSIN_C_CE Eurofins SafetyScreen44 (BI)", "details": "Compound concentration 10.0 uM"}, "[38]": {"biological_target": "Histamine H3 receptor (Homo sapiens) (UniProt Q9Y5N1)", "sequence (Q9Y5N1 whole entry)": "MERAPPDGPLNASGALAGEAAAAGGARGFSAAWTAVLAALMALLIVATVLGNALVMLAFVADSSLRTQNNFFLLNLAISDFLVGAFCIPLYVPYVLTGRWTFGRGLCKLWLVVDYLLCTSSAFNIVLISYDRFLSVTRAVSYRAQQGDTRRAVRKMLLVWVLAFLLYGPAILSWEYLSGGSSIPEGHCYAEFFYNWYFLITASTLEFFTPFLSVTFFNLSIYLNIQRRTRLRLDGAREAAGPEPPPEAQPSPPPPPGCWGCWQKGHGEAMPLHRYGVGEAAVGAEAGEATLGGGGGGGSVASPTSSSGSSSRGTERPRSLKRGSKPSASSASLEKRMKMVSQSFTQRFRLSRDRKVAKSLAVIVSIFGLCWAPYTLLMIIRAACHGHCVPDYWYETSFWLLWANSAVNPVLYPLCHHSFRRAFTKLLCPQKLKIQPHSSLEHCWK", "details": "Compound concentration 10.0 uM"}, "[39]": {"species_on_record": "Rattus norvegicus", "assay": "NA+/SITE2/R Eurofins SafetyScreen44 (BI)", "details": "Compound concentration 10.0 uM"}, "[40]": {"biological_target": "Prostaglandin G/H synthase 2 (Homo sapiens) (UniProt P35354)", "sequence (P35354 whole entry)": "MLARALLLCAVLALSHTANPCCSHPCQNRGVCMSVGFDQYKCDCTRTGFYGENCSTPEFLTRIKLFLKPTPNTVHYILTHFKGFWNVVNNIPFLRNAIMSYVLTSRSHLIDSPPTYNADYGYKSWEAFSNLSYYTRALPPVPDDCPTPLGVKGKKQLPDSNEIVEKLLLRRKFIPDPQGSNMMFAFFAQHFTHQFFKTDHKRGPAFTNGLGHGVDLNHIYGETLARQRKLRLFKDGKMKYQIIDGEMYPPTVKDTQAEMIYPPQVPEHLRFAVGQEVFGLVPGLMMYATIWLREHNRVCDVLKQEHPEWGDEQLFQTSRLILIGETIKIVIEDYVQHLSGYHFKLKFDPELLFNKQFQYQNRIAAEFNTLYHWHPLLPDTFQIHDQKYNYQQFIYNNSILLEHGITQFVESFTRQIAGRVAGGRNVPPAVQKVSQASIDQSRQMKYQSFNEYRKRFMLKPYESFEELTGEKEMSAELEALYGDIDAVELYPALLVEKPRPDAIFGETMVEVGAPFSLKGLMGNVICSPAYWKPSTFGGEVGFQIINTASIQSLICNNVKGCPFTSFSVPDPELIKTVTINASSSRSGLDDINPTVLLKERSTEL", "assay": "COX-2 Eurofins SafetyScreen44 (BI)", "details": "Compound concentration 10.0 uM"}, "[41]": {"biological_target": "Tyrosine-protein kinase Lck (Homo sapiens) (UniProt P06239)", "assay": "LCK_CE Eurofins SafetyScreen44 (BI)", "details": "Compound concentration 10.0 uM"}, "[42]": {"biological_target": "Proteinase-activated receptor 1 (Homo sapiens) (UniProt P25116)", "assay": "PAR1(H)ANTAG Eurofins SafetyScreen44 (BI)", "details": "filed as antagonist, Compound concentration 10.0 uM"}, "[43]": {"biological_target": "5-hydroxytryptamine receptor 6 (Homo sapiens) (UniProt P50406)", "details": "Compound concentration 10.0 uM"}, "[44]": {"biological_target": "Cathepsin G (Homo sapiens) (UniProt P08311)", "assay": "CATHEPSG(H) Eurofins SafetyScreen44 (BI)", "details": "Compound concentration 10.0 uM"}, "[45]": {"biological_target": "Histamine H2 receptor (Homo sapiens) (UniProt P25021)", "details": "Compound concentration 10.0 uM"}}}
{"smiles": "CC[C@H](CC(=O)O)n1c(=O)c2ncccc2n(Cc2cn(C)c3cc(C)cc(C)c23)c1=O", "note": "[BI-1942]", "values": [{"measurement": "residual activity", "setting": "[1]", "value": 114, "unit": "%"}, {"measurement": "residual activity", "setting": "[2]", "value": 98, "unit": "%"}, {"measurement": "residual activity", "setting": "[3]", "value": 97, "unit": "%"}, {"measurement": "residual activity", "setting": "[4]", "value": 114, "unit": "%"}, {"measurement": "inhibition", "setting": "[5]", "value": 0.23, "unit": "%"}, {"measurement": "inhibition", "setting": "[6]", "value": 31.5, "unit": "%"}, {"measurement": "residual activity", "setting": "[7]", "value": 101, "unit": "%"}, {"measurement": "residual activity", "setting": "[8]", "value": 107, "unit": "%"}, {"measurement": "residual activity", "setting": "[9]", "value": 115, "unit": "%"}, {"measurement": "residual activity", "setting": "[10]", "value": 99, "unit": "%"}, {"measurement": "residual activity", "setting": "[11]", "value": 111, "unit": "%"}, {"measurement": "residual activity", "setting": "[12]", "value": 124, "unit": "%"}, {"measurement": "residual activity", "setting": "[13]", "value": 104, "unit": "%"}, {"measurement": "inhibition", "setting": "[14]", "value": 10.5, "unit": "%"}, {"measurement": "inhibition", "setting": "[15]", "value": 20.3, "unit": "%"}, {"measurement": "inhibition", "setting": "[16]", "value": 95.9, "unit": "%"}, {"measurement": "inhibition", "setting": "[17]", "value": 22.2, "unit": "%"}, {"measurement": "residual activity", "setting": "[18]", "value": 101, "unit": "%"}, {"measurement": "inhibition", "setting": "[19]", "value": -6.54, "unit": "%"}, {"measurement": "residual activity", "setting": "[20]", "value": 90, "unit": "%"}, {"measurement": "inhibition", "setting": "[21]", "value": 5.01, "unit": "%"}, {"measurement": "residual activity", "setting": "[22]", "value": 102, "unit": "%"}, {"measurement": "inhibition", "setting": "[23]", "value": 11.1, "unit": "%"}, {"measurement": "inhibition", "setting": "[24]", "value": -5.56, "unit": "%"}, {"measurement": "inhibition", "setting": "[25]", "value": 10.4, "unit": "%"}, {"measurement": "inhibition", "setting": "[26]", "value": 2.82, "unit": "%"}, {"measurement": "inhibition", "setting": "[27]", "value": -1.4, "unit": "%"}, {"measurement": "inhibition", "setting": "[28]", "value": 9.09, "unit": "%"}, {"measurement": "inhibition", "setting": "[29]", "value": 19.6, "unit": "%"}, {"measurement": "residual activity", "setting": "[30]", "value": 102, "unit": "%"}, {"measurement": "residual activity", "setting": "[31]", "value": 118, "unit": "%"}, {"measurement": "inhibition", "setting": "[32]", "value": 3.5, "unit": "%"}, {"measurement": "residual activity", "setting": "[33]", "value": 108, "unit": "%"}, {"measurement": "residual activity", "setting": "[34]", "value": 94, "unit": "%"}, {"measurement": "residual activity", "setting": "[35]", "value": 106, "unit": "%"}, {"measurement": "residual activity", "setting": "[36]", "value": 86, "unit": "%"}, {"measurement": "residual activity", "setting": "[37]", "value": 92, "unit": "%"}, {"measurement": "inhibition", "setting": "[38]", "value": 3.32, "unit": "%"}, {"measurement": "residual activity", "setting": "[39]", "value": 97, "unit": "%"}, {"measurement": "residual activity", "setting": "[40]", "value": 101, "unit": "%"}, {"measurement": "residual activity", "setting": "[41]", "value": 103, "unit": "%"}, {"measurement": "residual activity", "setting": "[42]", "value": 120, "unit": "%"}, {"measurement": "inhibition", "setting": "[43]", "value": 12.2, "unit": "%"}, {"measurement": "residual activity", "setting": "[44]", "value": -2, "unit": "%"}, {"measurement": "inhibition", "setting": "[45]", "value": -4.71, "unit": "%"}]}
